The record followed here is patent US20240400561A1, “NOVEL SUBSTITUTED SULFONYLUREA COMPOUNDS AS INHIBITORS OF INTERLEUKIN-1 ACTIVITY” (Viva Star Biosciences (Suzhou) Co., Ltd., priority 2021, published 2024).

Bounds are passed on as bounds.

In this assay the target is T1, NLRP3 (Homo sapiens, UniProt Q96P20).
T1 construct: Seed THP-1 cells (5.56*10^5 cells/mL) containing 1.0 ug/mL LPS; endogenous in cells; host or cells: THP-1 cells
Description: THP-1 cell assay (LPS priming, nigericin), IL1β release by HTRF; called pyroptosis assay, THP IC50. The settings on record: NLRP3 inhibitory activity; THP-1 cells, 1.0 ug/mL LPS, compound 3 hrs, nigericin 5 uM 1 hr, IL1β in supernatant. In kind it is cell-based. The method in brief:
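THP-1 cells were primed with 1.0 ug/mL LPS in serum-free RPMI 1640 alongside compound (10 doses from 5 uM, 1:3) for 3 h at 37° C. Nigericin (final 5 uM) was then added for 1 h. Supernatant IL1β was quantified by HTRF against a standard curve, with IC50 from a four-parameter fit.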
On the technique in general: In TR-FRET formats the signal depends on donor and acceptor labels being close together.

T1 sequence (Q96P20 whole entry): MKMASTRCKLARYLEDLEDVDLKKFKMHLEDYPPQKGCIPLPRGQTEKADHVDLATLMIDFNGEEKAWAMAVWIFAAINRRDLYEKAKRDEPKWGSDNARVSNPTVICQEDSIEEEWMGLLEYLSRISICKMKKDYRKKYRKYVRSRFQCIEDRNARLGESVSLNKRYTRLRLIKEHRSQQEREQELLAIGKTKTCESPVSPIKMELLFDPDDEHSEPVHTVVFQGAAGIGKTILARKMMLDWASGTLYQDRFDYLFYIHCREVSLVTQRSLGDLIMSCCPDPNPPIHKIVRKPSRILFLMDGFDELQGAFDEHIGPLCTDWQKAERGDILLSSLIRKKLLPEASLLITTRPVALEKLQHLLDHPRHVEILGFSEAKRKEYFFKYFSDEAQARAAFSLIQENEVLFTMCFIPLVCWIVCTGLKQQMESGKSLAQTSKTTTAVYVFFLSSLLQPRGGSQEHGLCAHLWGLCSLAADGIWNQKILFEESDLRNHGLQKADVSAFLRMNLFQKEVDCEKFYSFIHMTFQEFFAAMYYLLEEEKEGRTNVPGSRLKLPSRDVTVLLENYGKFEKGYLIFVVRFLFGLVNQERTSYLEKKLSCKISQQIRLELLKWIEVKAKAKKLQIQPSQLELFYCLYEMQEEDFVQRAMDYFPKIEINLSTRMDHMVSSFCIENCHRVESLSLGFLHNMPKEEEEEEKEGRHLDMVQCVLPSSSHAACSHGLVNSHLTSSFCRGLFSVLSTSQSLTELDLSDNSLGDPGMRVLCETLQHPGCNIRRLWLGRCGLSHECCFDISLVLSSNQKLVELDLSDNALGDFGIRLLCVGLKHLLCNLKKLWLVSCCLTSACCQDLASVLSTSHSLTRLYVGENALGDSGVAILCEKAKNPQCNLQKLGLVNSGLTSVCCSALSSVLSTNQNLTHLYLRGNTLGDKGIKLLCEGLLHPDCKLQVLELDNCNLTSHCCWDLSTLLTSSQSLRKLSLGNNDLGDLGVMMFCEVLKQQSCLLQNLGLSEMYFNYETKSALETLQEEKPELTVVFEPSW

Consider `Cc1cc2cc(-c3ccc4c(c3NC(=O)NS(=O)(=O)c3cc(C(C)(C)O)cs3)CCC4)ccn2n1` [Example 74, 4-(2-hydroxypropan-2-yl)-N-((5-(2-methylpyrazolo[1,5-a]pyridin-5-yl)-2,3-dihydro-1H-inden-4-yl)carbamoyl)thiophene-2-sulfonamide], for which the concentration for half-maximal inhibition (IC50) (usually the concentration that inhibits the measured activity by half) was ≤ 30 nM.
Regarding `Cc1cc2c(c(NC(=O)NS(=O)(=O)C3CC(OC4CC4)C3)c1-c1ccn3nccc3c1)CCC2` (centres unmarked) [Example 75, 3-cyclopropoxy-N-((6-methyl-5-(pyrazolo[1,5-a]pyridin-5-yl)-2,3-dihydro-1H-inden-4-yl)carbamoyl)cyclobutane-1-sulfonamide], the half-inhibitory concentration (IC50) is 30 to 300 nM.
As for `Cc1cc2c(c(NC(=O)NS(=O)(=O)c3ccn(C4CC(O)C4)n3)c1-c1ccn3nccc3c1)CCC2` (centres unmarked) [Example 76, 1-(3-hydroxycyclobutyl)-N-((6-methyl-5-(pyrazolo[1,5-a]pyridin-5-yl)-2,3-dihydro-1H-inden-4-yl)carbamoyl)-1H-pyrazole-3-sulfonamide], the IC50 is ≤ 30 nM.
Take `Cc1cc2c(c(NC(=O)NS(=O)(=O)c3cc(CN(C)C)n(C4CC4)n3)c1-c1ccn3nccc3c1)CCC2` [Example 77, 1-cyclopropyl-5-((dimethylamino)methyl)-N-((6-methyl-5-(pyrazolo[1,5-a]pyridin-5-yl)-2,3-dihydro-1H-inden-4-yl)carbamoyl)-1H-pyrazole-3-sulfonamide]: the IC50 lay in the range of 30 to 300 nM.
On to `Cc1cc2c(c(NC(=O)NS(=O)(=O)c3ccn(C4CC4)n3)c1-c1ccn3nncc3c1)CCC2` [Example 78, N-((5-([1,2,3]triazolo[1,5-a]pyridin-5-yl)-6-methyl-2,3-dihydro-1H-inden-4-yl)carbamoyl)-1-cyclopropyl-1H-pyrazole-3-sulfonamide], for which the IC50 was ≤ 30 nM.
Regarding `Cc1cc2c(c(NC(=O)NS(=O)(=O)c3ccn(C[C@@H](C)O)n3)c1-c1ccn3nccc3c1)CCC2` [Example 79, (R)-1-(2-hydroxypropyl)-N-((6-methyl-5-(pyrazolo[1,5-a]pyridin-5-yl)-2,3-dihydro-1H-inden-4-yl)carbamoyl)-1H-pyrazole-3-sulfonamide], the half-maximal inhibitory concentration (IC50) is ≤ 30 nM.
On to `Cc1cc2c(c(NC(=O)NS(=O)(=O)c3ccn(C[C@H](C)O)n3)c1-c1ccn3nccc3c1)CCC2` [Example 80, (S)-1-(2-hydroxypropyl)-N-((6-methyl-5-(pyrazolo[1,5-a]pyridin-5-yl)-2,3-dihydro-1H-inden-4-yl)carbamoyl)-1H-pyrazole-3-sulfonamide], for which the 50% inhibitory concentration (IC50) is ≤ 30 nM.
On to `Cc1cc2c(c(NC(=O)NS(=O)(=O)c3cc(OC4CC4)cnn3)c1-c1ccn3nccc3c1)CCC2` [Example 81, 5-cyclopropoxy-N-((6-methyl-5-(pyrazolo[1,5-a]pyridin-5-yl)-2,3-dihydro-1H-inden-4-yl)carbamoyl)-1H-pyridazine-3-sulfonamide], for which the concentration for half-maximal inhibition (IC50) is ≤ 30 nM.
Take `Cc1cc2c(c(NC(=O)NS(=O)(=O)c3ccn(C(C)C4CC4)n3)c1-c1ccn3nccc3c1)CCC2` (centres unmarked) [Example 82, 1-(1-cyclopropylethyl)-N-((6-methyl-5-(pyrazolo[1,5-a]pyridin-5-yl)-2,3-dihydro-1H-inden-4-yl)carbamoyl)-1H-pyrazole-3-sulfonamide]: the IC50 lay within 300 to 1000 nM.
`Cc1cc2c(c(NC(=O)NS(=O)(=O)c3ccn(C4CC4)n3)c1-c1ccn3nccc3c1)OCC2` [Example 83, 1-cyclopropyl-N-((5-methyl-6-(pyrazolo[1,5-a]pyridin-5-yl)-2,3-dihydrobenzofuran-7-yl)carbamoyl)-1H-pyrazole-3-sulfonamide] showed an IC50 of 30 to 300 nM.
Then `Cc1cc2c(c(NC(=O)NS(=O)(=O)c3cncc(C4CCC4)c3)c1-c1ccn3nccc3c1)CCC2` [Example 84, 5-cyclobutyl-N-((6-methyl-5-(pyrazolo[1,5-a]pyridin-5-yl)-2,3-dihydro-1H-inden-4-yl)carbamoyl)pyridine-3-sulfonamide], with ≤ 30 nM.
As for `Cc1cc2c(c(NC(=O)NS(=O)(=O)c3ccn(CC4CC4)n3)c1-c1ccn3nccc3c1)OCC2` [Example 86, 1-(cyclopropylmethyl)-N-((5-methyl-6-(pyrazolo[1,5-a]pyridin-5-yl)-2,3-dihydrobenzofuran-7-yl)carbamoyl)-1H-pyrazole-3-sulfonamide], the figure is 30 to 300 nM.
The compound `O=C(Nc1c2c(cc(F)c1-c1ccn3nccc3c1)CCO2)NS(=O)(=O)c1ccn(C2CC2)n1` [Example 87, 1-cyclopropyl-N-((5-fluoro-6-(pyrazolo[1,5-a]pyridin-5-yl)-2,3-dihydrobenzofuran-7-yl)carbamoyl) 1H-pyrazole-3-sulfonamide] displayed an IC50 of 300 to 1000 nM.
Then `Cc1cc2cc(-c3c(C)cc4c(c3NC(=O)NS(=O)(=O)c3ccn(C5CC5)n3)CCC4)ccn2n1` [Example 88, 1-cyclopropyl-N-((6-methyl-5-(2-methylpyrazolo[1,5-a]pyridin-5-yl)-2,3-dihydro-1H-inden-4-yl)carbamoyl)-1H-pyrazole-3-sulfonamide], with ≤ 30 nM; and `O=C(Nc1c2c(cc(Cl)c1-c1ccn3nccc3c1)CCC2)NS(=O)(=O)c1ccn(C2CC2)n1` [Example 89, N-((6-chloro-5-(pyrazolo[1,5-a]pyridin-5-yl)-2,3-dihydro-1H-inden-4-yl)carbamoyl)-1-cyclopropyl-1H-pyrazole-3-sulfonamide], with ≤ 30 nM.
As for `Cc1cc2c(c(NC(=O)NS(=O)(=O)c3ccn(C[C@@H]4CCO4)n3)c1-c1ccn3nccc3c1)CCC2` [Example 91, (S)—N-((6-methyl-5-(pyrazolo[1,5-a]pyridin-5-yl)-2,3-dihydro-1H-inden-4-yl)carbamoyl)-1-(oxetan-2-ylmethyl)-1H-pyrazole-3-sulfonamide], the IC50 was ≤ 30 nM.
As to `Cc1cc2c(c(NC(=O)NS(=O)(=O)c3ccn(C4CC4)n3)c1-c1ccc3ccnn3c1)CCC2` [Example 92, 1-cyclopropyl-N-((6-methyl-5-(pyrazolo[1,5-a]pyridin-6-yl)-2,3-dihydro-1H-inden-4-yl)carbamoyl)-1H-pyrazole-3-sulfonamide], the IC50 fell in the range of 30 to 300 nM.
As for `Cc1cc2c(c(NC(=O)NS(=O)(=O)c3ccn(C4CC4)n3)c1-c1ccn3cnnc3c1)CCC2` [Example 93, N-((5-([1,2,4]triazolo[4,3-a]pyridin-7-yl)-6-methyl-2,3-dihydro-1H-inden-4-yl)carbamoyl)-1-cyclopropyl-pyrazole-3-sulfonamide], the figure is ≤ 30 nM; as for `Cc1cc2c(c(NC(=O)NS(=O)(=O)c3ccn(C[C@@H]4CCO4)n3)c1-c1ccn3ncnc3c1)CCC2` [Example 94, (S)—N-((5-([1,2,4]triazolo[1,5-a]pyridin-7-yl)-6-methyl-2,3-dihydro-1H-inden-4-yl)carbamoyl)-1-(oxetan-2-ylmethyl)-1H-pyrazole-3-sulfonamide], 30 to 300 nM.
The compound `Cc1cc2c(c(NC(=O)NS(=O)(=O)c3ccn(C[C@@H]4CCO4)n3)c1-c1ccc3ccnn3c1)CCC2` [Example 95, (S)—N-((6-methyl-5-(pyrazolo[1,5-a]pyridin-6-yl)-2,3-dihydro-1H-inden-4-yl)carbamoyl)-1-(oxetan-2-ylmethyl)-1H-pyrazole-3-sulfonamide] gave an IC50 of 30 to 300 nM.
In the case of `O=C(Nc1c2c(cc(Cl)c1-c1ccn3cnnc3c1)CCC2)NS(=O)(=O)c1ccn(C2CC2)n1` [Example 96, N-((5-([1,2,4]triazolo[4,3-a]pyridin-7-yl)-6-chloro-2,3-dihydro-1H-inden-4-yl)carbamoyl)-1-cyclopropyl-1H-pyrazole-3-sulfonamide], the IC50 was ≤ 30 nM.
As for `Cc1cc2c(c(NC(=O)NS(=O)(=O)c3ccn(C4CC4)n3)c1-c1ccc3ncnn3c1)CCC2` [Example 97, N-((5-([1,2,4]triazolo[1,5-a]pyridin-6-yl)-6-methyl-2,3-dihydro-1H-inden-4-yl)carbamoyl)-1-cyclopropyl-1H-pyrazole-3-sulfonamide], the figure is ≤ 30 nM; as for `O=C(Nc1c2c(cc(CO)c1-c1ccn3nccc3c1)CCC2)NS(=O)(=O)c1ccn(C2CC2)n1` [Example 98, 1-cyclopropyl-N-((6-(hydroxymethyl)-5-(pyrazolo[1,5-a]pyridin-5-yl)-2,3-dihydro-1H-inden-4-yl)carbamoyl)-1H-pyrazole-3-sulfonamide], 30 to 300 nM.
